{"source": "patent US20220023291A1", "about": "“COMPOSITIONS AND METHODS FOR REGULATING INFLAMMATION” (University of Virginia Patent Foundation, priority 2018, published 2022)", "key": {"[1]": {"settings": "cited from earlier work"}, "[2]": {"tested_on": "primary lung fibroblasts", "experiment": "IL-6 ELISA on supernatant of LPS-stimulated primary lung fibroblasts", "format": "cell-based, mouse", "settings": "1 μg/mL LPS + 5 μM 4μ8C, 6 hours", "procedure": "(§1) Tissue culture conditions and Reagents. HEK293 cells, primary lung fibroblasts and BMDM were isolated and maintained as described (41-43). Cells were treated with LPS (Sigma, L4391), 4μ8C (Tocris, 4479), tunicamycin (Tocris, 3516), PD98059 (Medchem Express HY-12028), JSH-23 (Medchem Express, Hy-13982), SP600125 (Medchem Express, HY-12041), cycloheximide (Tocris, 0970), lactacystin (Cayman Chemical, 70980), chloroquine (Fisher, ICN19391925), and STF 083010 (Medchem Express, HY-15845) as described in the text.\n(§2) ELISA. ELISA for IL-6 and TNFα were performed as previously described (Remick et al., 2002). Antibodies used were: anti-mouse IL-6 MP5-20F3 (Biolegend, 504501) 0.5 μg/mL; biotin anti-mouse IL-6 MP5-32C11 (Biolegend, 504601) 1 μg/mL; anti-mouse TNFα (R&D systems, AF-410-NA) 0.5 μg/mL; biotin anti-mouse TNFα (R&D systems, BAF410) 0.25 μg/mL.\nTissue culture conditions and Reagents. HEK293 mTLR4/MD2/CD14 (Invivogen, 293-mtlr4md2cd14), primary lung fibroblasts, and BMDM were isolated and maintained as described (Zhang et al., 2008; Seluanov et al., 2010). […]"}, "[3]": {"tested_on": "BMDM", "experiment": "IL-6 ELISA on supernatant of LPS-stimulated BMDM", "format": "cell-based, mouse", "settings": "1 μg/mL LPS, 6 hours; 20 μM JSH-23, 20 μM PD98059, 1 μM SP600125, 5 μM 4μ8C", "procedure": "as §1, §2\nTissue culture conditions and Reagents. HEK293 mTLR4/MD2/CD14 (Invivogen, 293-mtlr4md2cd14), primary lung fibroblasts, and BMDM were isolated and maintained as described (Zhang et al., 2008; Seluanov et al., 2010). Cells and animals were treated with LPS (Sigma, L4391), 4μ8C (Tocris, 4479), APY-29 (Medchem Express HY-17537), PD98059 (Medchem Express HY-12028), JSH-23 (Medchem Express, HY-13982), SP600125 (Medchem Express, HY-12041), STF 083010 (Medchem Express, HY-15845), Fluvoxamine (Medchem Express, HY-B0103A), and Ceftriaxone (Hospira, NDC: 0409-7337-01), as described in the text.\nas §2, with “TNF-α” for “TNFα”"}, "[4]": {"tested_on": "BMDM", "experiment": "qPCR for pro-inflammatory cytokine expression in LPS-treated BMDM", "format": "cell-based, mouse", "settings": "100 ng/mL LPS + 5 μM 4μ8C, 6 hours", "procedure": "(§3) cDNA synthesis and quantitative RT-PCR. Total RNA was extracted using an ISOLATE II RNA (Bioline, 52073) and cDNA synthesis was performed with the ISCRIPT™ kit (Bio-Rad, 170-8891). TaqMan Probes were obtained from Life Technologies (GAPDH: Mm99999915_g1; IL-6: Mm00446190_m1; pro-IL-1β: Mm00434228_m1; TNFα: Mm00443258_m1). Primers for IRE1 detection were GCACGUGAAUUGAUAGAGA (SEQ ID NO: 10) and UCUCUAUCAAUUCACGUGC (SEQ ID NO: 11). Primers for the detection of XBP1 were previously published (Lipson et al., 2008). RT-PCR was performed as described previously (Gaultier et al., 2009).\n(§4) cDNA synthesis and quantitative PCR. Total RNA was extracted using an ISOLATE II RNA kit (Bioline, 52073) and cDNA synthesis was performed with the SENSIFAST™ cDNA synthesis kit (Bioline, BIO-65054). TaqMan Probes were obtained from Thermo Fisher (GAPDH: Mm99999915_g1; IL-6: Mm00446190_m1; pro-IL-1β: Mm00434228_m1; IL10: Mm004396). Primers for the detection of XBP1, IL-8, and actin were previously published (Vandesompele et al., 2002; Kumar & Valdivia, 2008; Girard et al., 2009). qPCR was performed as described previously (Gaultier et al., 2008)."}, "[5]": {"biological_target": "T1, IRE1 endonuclease activity (Mus musculus, UniProt Q9EQY0)", "T1 construct": "We prepared bone marrow derived macrophages (BMDM) from WT and S1R KO mice; endogenous in cells; host or cells: primary mouse bone marrow derived macrophages (WT and S1R KO, C57BL/6J background)", "T1 sequence (Q9EQY0 21-977)": "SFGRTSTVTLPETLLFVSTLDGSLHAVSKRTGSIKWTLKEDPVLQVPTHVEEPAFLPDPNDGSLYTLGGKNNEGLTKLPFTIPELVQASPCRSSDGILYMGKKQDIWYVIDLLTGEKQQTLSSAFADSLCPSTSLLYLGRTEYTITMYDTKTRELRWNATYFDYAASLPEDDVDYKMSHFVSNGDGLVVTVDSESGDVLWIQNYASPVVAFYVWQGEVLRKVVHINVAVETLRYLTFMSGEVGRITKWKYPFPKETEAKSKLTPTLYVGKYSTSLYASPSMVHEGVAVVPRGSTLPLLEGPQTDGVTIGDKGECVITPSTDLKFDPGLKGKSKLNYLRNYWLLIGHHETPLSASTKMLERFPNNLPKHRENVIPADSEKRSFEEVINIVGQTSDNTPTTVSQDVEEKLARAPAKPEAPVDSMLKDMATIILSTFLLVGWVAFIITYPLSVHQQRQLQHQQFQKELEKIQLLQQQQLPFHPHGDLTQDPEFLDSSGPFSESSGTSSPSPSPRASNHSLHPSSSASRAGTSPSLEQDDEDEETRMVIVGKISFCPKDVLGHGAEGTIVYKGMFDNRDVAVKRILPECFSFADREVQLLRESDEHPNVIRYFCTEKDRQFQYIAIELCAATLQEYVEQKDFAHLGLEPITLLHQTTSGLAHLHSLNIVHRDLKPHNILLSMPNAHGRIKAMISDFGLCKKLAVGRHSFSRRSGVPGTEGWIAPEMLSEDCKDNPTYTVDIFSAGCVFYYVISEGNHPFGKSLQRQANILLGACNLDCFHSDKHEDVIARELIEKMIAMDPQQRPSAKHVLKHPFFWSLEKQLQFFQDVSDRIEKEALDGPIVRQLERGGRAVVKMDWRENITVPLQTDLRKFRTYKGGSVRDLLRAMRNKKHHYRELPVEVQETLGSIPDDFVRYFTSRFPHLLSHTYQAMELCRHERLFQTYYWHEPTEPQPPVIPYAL", "experiment": "XBP1 splicing ratio by qPCR in BMDM", "format": "cell-based", "settings": "WT and S1R KO BMDM, 100 ng/mL LPS + 5 μM 4μ8C, 6 hours", "procedure": "as §1, §3, §4"}, "[6]": {"tested_on": "IRE1 transcript", "experiment": "qPCR for IRE1 expression in BMDM", "format": "cell-based, mouse", "settings": "S1R KO BMDM, 5 μM 4μ8C", "procedure": "as §3"}, "[7]": {"settings": "pre-clinical tests; cited from earlier work"}, "[8]": {"tested_on": "transgenic (3×Tg-AD) mice", "settings": "cited from earlier work"}}, "note": "Entries after “also recorded” stand apart in the source; their conditions may differ.", "data": [{"molecule": "Cc1cc(=O)oc2c(C=O)c(O)ccc12", "note": "[4μ8C, 7-Hydroxy-4-methyl-2-oxo-2H-1-benzopyran-8-carboxaldehyde]", "values": [{"measurement": "Half-life in vivo", "setting": "[1]", "value": "short half-life"}, {"measurement": "IL-6 / cytokine secretion by lung fibroblasts upon LPS stimulation", "setting": "[2]", "value": "marked decrease of cytokine secretion"}, {"measurement": "Difference in LPS-induced IL-6 secretion between WT and S1R KO BMDM", "setting": "[3]", "value": "rescued IL-6 secretion in S1R KO cells to the levels observed in control BMDM"}, {"measurement": "Potentiated cytokine expression in S1R KO BMDM relative to WT (qPCR)", "setting": "[4]", "value": "inhibits potentiation of cytokine expression in S1R KO BMDM; also recorded: reversed IL-6 expression in KO cells to the amount observed in WT BMDM"}, {"measurement": "IL-1β expression (qPCR)", "setting": "[4]; WT and S1R KO BMDM", "value": "decreases"}, {"measurement": "IL-6 expression (qPCR)", "setting": "[4]; WT and S1R KO BMDM", "value": "decreases"}, {"measurement": "LPS induced XBP1 splicing", "setting": "[5]", "value": "completely abolished"}, {"measurement": "IRE1 transcript levels", "setting": "[6]", "value": "restores IRE1 transcript levels to those observed in WT BMDM"}]}, {"molecule": "CN(C)CC1COC(c2ccccc2)(c2ccccc2)C1.Cl", "note": "(stereo not shown) [ANAVEX® 1-41, tetrahydro-N,N-dimethyl-5,5-di phenyl-3-furanmethanamine hydrochloride]", "values": [{"measurement": "Neuroprotective benefits", "setting": "[7]", "value": "significant neuroprotective benefits"}]}, {"molecule": "CC1SC2(CCN(C)CC2)CN1C(=O)CCc1c[nH]c2ccccc12", "note": "(stereo not shown) [ANAVEX® 3-71, 1-(2,8-dimethyl-1-thia-3,8-diazaspiro(4.5)dec-3-yl)-3-(1H-indol-3-yl)propan-1-one]", "values": [{"measurement": "Effect on major Alzheimer's hallmarks (cognitive deficits, amyloid and tau pathologies)", "setting": "[8]", "value": "highly effective in very small doses"}]}]}
